Results: ChEMBL document CHEMBL4024737, “Iodine catalyzed three component synthesis of 1-((2-hydroxy naphthalen-1-yl)(phenyl)(methyl))pyrrolidin-2-one derivatives: Rationale as potent PI3K inhibitors and anticancer agents” (Bioorg Med Chem Lett, 2017)
The source made the active and inactive calls. The calls are words filed in the database; no cut-off is given here.

Assays:
[1] = target: T1, Phosphatidylinositol 4,5-bisphosphate 3-kinase catalytic subunit alpha isoform (Homo sapiens, UniProt P42336); test: Inhibition of PI3K p110alpha (unknown origin) using PIP2 as substrate preincubated for 10 mins followed by substrate addition measured after 1 hr
[2] = target: T1, Phosphatidylinositol 4,5-bisphosphate 3-kinase catalytic subunit alpha isoform; test: Inhibition of PI3K p110alpha (unknown origin) assessed as residual activity using PIP2 as substrate preincubated for 10 mins followed by substrate addition measured after 1 hr relative to control; set-up: concentration or dose not given beside the values
[3] = tested on: HCT-116; test: Growth inhibition of human HCT116 cells by MTT assay; assay type: functional, cell-based; settings: for IC50: Homo sapiens, HCT-116
[4] = tested on: MCF7; test: Growth inhibition of human MCF7 cells by MTT assay; assay type: functional, cell-based; settings: for IC50: Homo sapiens, MCF7

T1 sequence (P42336 whole entry, canonical isoform): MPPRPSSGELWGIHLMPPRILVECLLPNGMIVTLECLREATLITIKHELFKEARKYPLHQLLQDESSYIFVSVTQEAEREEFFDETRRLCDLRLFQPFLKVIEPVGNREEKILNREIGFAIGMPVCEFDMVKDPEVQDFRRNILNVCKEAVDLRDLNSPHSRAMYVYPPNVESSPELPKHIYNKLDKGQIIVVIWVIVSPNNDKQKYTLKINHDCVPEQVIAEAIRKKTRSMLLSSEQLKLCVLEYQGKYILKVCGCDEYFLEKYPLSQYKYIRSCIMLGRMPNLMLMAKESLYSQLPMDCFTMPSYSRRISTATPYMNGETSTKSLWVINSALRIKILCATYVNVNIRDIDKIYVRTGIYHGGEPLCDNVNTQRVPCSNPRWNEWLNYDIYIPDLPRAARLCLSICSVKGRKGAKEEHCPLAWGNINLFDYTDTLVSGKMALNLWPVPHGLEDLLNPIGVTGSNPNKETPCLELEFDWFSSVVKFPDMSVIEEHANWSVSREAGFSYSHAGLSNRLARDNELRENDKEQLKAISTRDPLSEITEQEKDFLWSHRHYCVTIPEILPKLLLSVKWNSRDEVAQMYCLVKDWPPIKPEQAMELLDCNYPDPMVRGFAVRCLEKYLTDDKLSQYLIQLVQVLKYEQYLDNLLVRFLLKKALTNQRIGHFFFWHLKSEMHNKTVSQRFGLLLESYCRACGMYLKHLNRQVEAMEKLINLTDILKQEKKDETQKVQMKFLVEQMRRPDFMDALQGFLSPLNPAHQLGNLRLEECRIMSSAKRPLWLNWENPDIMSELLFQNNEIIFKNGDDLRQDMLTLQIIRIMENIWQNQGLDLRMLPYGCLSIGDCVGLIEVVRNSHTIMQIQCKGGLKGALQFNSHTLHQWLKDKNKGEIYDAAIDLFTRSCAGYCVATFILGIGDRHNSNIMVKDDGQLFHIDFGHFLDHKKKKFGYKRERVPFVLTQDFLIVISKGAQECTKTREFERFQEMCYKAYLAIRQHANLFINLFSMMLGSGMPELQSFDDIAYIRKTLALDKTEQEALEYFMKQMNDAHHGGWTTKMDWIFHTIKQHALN

SMILES: O=C1CCCN1C(c1ccccc1F)c1c(O)ccc2ccccc12 (centres undefined)
- IC50 [1]: ≥ 5 µM
- Activity [2]: 56%
- growth inhibition (GI) [3]: 37.38%
- IC50 [3]: 14.8 µM
- growth inhibition (GI) [4]: 60.38%
- IC50 [4]: 4.81 µM

SMILES: Cc1ccc(C(c2c(O)ccc3ccccc23)N2CCCC2=O)cc1 (centres undefined)
- IC50 [1]: < 5 µM
- Activity [2]: 52%
- growth inhibition (GI) [3]: 26.28%
- IC50 [3]: 24.8 µM
- growth inhibition (GI) [4]: 56.46%
- IC50 [4]: 4.81 µM

SMILES: O=C1CCCN1C(c1ccc(Cl)cc1Cl)c1c(O)ccc2ccccc12 (centres undefined)
- IC50 [1]: < 1 µM
- Activity [2]: 62%
- growth inhibition (GI) [3]: 28.26%
- IC50 [3]: 14.2 µM
- growth inhibition (GI) [4]: 61.71%
- IC50 [4]: 4.23 µM

SMILES: O=C1CCCN1C(c1ccccc1Cl)c1c(O)ccc2ccccc12 (centres undefined)
- IC50 [1]: ≥ 5 µM
- Activity [2]: 55%
- growth inhibition (GI) [3]: 40.12%
- IC50 [3]: 26.6 µM
- growth inhibition (GI) [4]: 55.01%
- IC50 [4]: 6.58 µM

SMILES: O=C1CCCN1C(c1ccc(O)cc1)c1c(O)ccc2ccccc12 (centres undefined)
- IC50 [1]: ≥ 25 µM
- Activity [2]: 28%
- growth inhibition (GI) [3]: 28.14%
- IC50 [3]: 31 µM
- growth inhibition (GI) [4]: 30.98%
- IC50 [4]: 31 µM

SMILES: N#Cc1ccc(C(c2c(O)ccc3ccccc23)N2CCCC2=O)cc1 (centres undefined)
- IC50 [1]: ≥ 25 µM
- Activity [2]: 28%
- growth inhibition (GI) [3]: inactive
- growth inhibition (GI) [4]: 33.41%
- IC50 [4]: 80.3 µM

SMILES: O=C1CCCN1C(c1cccs1)c1c(O)ccc2ccccc12 (centres undefined)
- IC50 [1]: ≥ 25 µM
- Activity [2]: 24%
- growth inhibition (GI) [3]: inactive
- growth inhibition (GI) [4]: 30.01%
- IC50 [4]: 81.1 µM

SMILES: O=C1CCCN1C(c1ccc(O)cc1O)c1c(O)ccc2ccccc12 (centres undefined)
- IC50 [1]: ≥ 25 µM
- Activity [2]: 22%
- growth inhibition (GI) [3]: inactive
- growth inhibition (GI) [4]: 35.02%
- IC50 [4]: 84.7 µM

SMILES: COc1ccccc1C(c1c(O)ccc2ccccc12)N1CCCC1=O (centres undefined)
- IC50 [1]: ≥ 25 µM
- Activity [2]: 22%
- growth inhibition (GI) [3]: inactive
- growth inhibition (GI) [4]: 21.81%
- IC50 [4]: 92.1 µM

SMILES: O=C1CCCN1C(c1ccccc1Br)c1c(O)ccc2ccccc12 (centres undefined)
- IC50 [1]: ≥ 0.05 µM
- Activity [2]: 79%
- growth inhibition (GI) [3]: 48.12%
- IC50 [3]: 12.9 µM
- growth inhibition (GI) [4]: 76.06%
- IC50 [4]: 1.03 µM

SMILES: O=C1CCCN1C(c1ccccc1)c1c(O)ccc2ccccc12 (centres undefined)
- IC50 [1]: ≥ 25 µM
- Activity [2]: 32%
- growth inhibition (GI) [3]: inactive
- growth inhibition (GI) [4]: 25.46%
- IC50 [4]: 82.2 µM

SMILES: O=C1CCCN1C(c1ccc(Cl)cc1)c1c(O)ccc2ccccc12 (centres undefined)
- IC50 [1]: < 25 µM
- Activity [2]: 42%
- growth inhibition (GI) [3]: inactive
- growth inhibition (GI) [4]: 23.14%
- IC50 [4]: 92.2 µM

SMILES: O=C1CCCN1C(c1ccc(Br)cc1)c1c(O)ccc2ccccc12 (centres undefined)
- IC50 [1]: ≥ 15 µM
- Activity [2]: 44%
- growth inhibition (GI) [3]: 20.22%
- IC50 [3]: 17.6 µM
- growth inhibition (GI) [4]: 41.22%
- IC50 [4]: 16.6 µM

SMILES: O=C1CCCN1C(c1cccc2ccccc12)c1c(O)ccc2ccccc12 (centres undefined)
- IC50 [1]: < 5 µM
- Activity [2]: 59%
- growth inhibition (GI) [3]: 36.14%
- IC50 [3]: 24.8 µM
- growth inhibition (GI) [4]: 60.46%
- IC50 [4]: 4.47 µM

SMILES: O=C1CCCN1C(c1ccc(F)cc1)c1c(O)ccc2ccccc12 (centres undefined)
- IC50 [1]: ≥ 0.05 µM
- Activity [2]: 83%
- growth inhibition (GI) [3]: 60.92%
- IC50 [3]: 6.98 µM
- growth inhibition (GI) [4]: 80.23%
- IC50 [4]: 0.981 µM

SMILES: COc1cccc2c1C(=O)c1c(O)c3c(c(O)c1C2=O)C[C@@](O)(C(=O)CO)C[C@@H]3O[C@H]1C[C@H](N)[C@H](O)[C@H](C)O1 [DOXORUBICIN]
- growth inhibition (GI) [3]: inactive
- growth inhibition (GI) [4]: 77.98%

SMILES: COC[C@H]1OC(=O)c2coc3c2[C@@]1(C)C1=C(C3=O)[C@@H]2CCC(=O)[C@@]2(C)C[C@H]1OC(C)=O
- Activity [2]: 76%

SMILES: COc1cccc(C(c2c(O)ccc3ccccc23)N2CCCC2=O)c1 (centres undefined)
- IC50 [1]: ≥ 15 µM
- Activity [2]: 46%
- growth inhibition (GI) [3]: 24.55%
- IC50 [3]: 15.2 µM
- growth inhibition (GI) [4]: 39.71%
- IC50 [4]: 15.2 µM

SMILES: COc1ccc(C(c2c(O)ccc3ccccc23)N2CCCC2=O)cc1 (centres undefined)
- IC50 [1]: ≥ 10 µM
- Activity [2]: 38%
- growth inhibition (GI) [3]: 56.44%
- IC50 [3]: 12 µM
- growth inhibition (GI) [4]: 38.98%
- IC50 [4]: 12 µM
